Data set [1] deals with T1, equine serum BChE [EqBChE] (Equus caballus, UniProt P81908).
T1 construct: equine serum BChE [EqBChE]; from tissue; host or cells: equine serum
Description: biochemical. The note with it: Ellman method, read-out: IC50(nM) ± SD BChE (EqBChE). The procedure: (§1) The anticholinesterase activity was determined using Ellman’s method, adapted as follows. […] Subsequently, 60 μL of 5,5′-dithiobis(2-nitrobenzoic acid) (DTNB, 1.1 mM) and 30 μL of enzyme solution (electric eel AChE [EeAChE], human AChE [hAChE], or equine serum BChE [EqBChE], 0.20 U/mL) containing 1 mg/mL bovine serum albumin (BSA) were added. […] Enzyme activity was calculated as the percentage relative to untreated controls, subtracting the blank reference. IC50 values were derived via non-linear regression analysis of dose–response curves (Figure S4) using GraphPad Prism v7.0.
(In Ellman's method for cholinesterases, released thiocholine reacts with DTNB.)

The target of data set [2] is electric eel AChE [EeAChE] (Electrophorus electricus, UniProt O42275). The experiment in a line: biochemical. Type of data set: biochemical. On the procedure:
as §1

The target in a further data set is T2, hMAO-A (Homo sapiens, UniProt P21397).
T2 construct: purchased Sigma-Aldrich, Gillingham, UK
T2 sequence (P21397 1-527): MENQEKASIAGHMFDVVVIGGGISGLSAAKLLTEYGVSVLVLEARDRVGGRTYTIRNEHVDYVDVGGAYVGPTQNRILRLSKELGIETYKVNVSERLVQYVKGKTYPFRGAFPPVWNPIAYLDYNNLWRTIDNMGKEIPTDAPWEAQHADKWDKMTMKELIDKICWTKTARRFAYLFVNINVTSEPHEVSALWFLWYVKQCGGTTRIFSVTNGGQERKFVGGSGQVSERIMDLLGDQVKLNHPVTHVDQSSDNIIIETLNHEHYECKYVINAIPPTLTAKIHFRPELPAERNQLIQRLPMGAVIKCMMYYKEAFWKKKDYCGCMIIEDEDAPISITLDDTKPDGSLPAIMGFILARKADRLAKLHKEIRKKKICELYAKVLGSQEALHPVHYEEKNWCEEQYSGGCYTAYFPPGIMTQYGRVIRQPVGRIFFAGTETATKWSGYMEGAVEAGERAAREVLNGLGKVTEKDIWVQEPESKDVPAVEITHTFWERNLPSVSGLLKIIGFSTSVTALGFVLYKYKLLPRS
The experiment in a line: MAO-A inhibition, fluorometric Amplex Red assay. Type of data set: biochemical. Conditions: test concentration of 1 µM; read-out: Percentage of MAO-A inhibition ± SEM. On the procedure: The activity of human recombinant membrane-bound monoamine oxidase isoforms A and B (MAO-A/B) (Sigma-Aldrich, Gillingham, UK) in 50 mM potassium phosphate buffer (pH 7.5) was determined by measuring hydrogen peroxide production coupled to the fluorescent dye Amplex Red (Sigma-Aldrich, UK) at a final concentration of 50 μM, in the presence of horseradish peroxidase (HRP, 2.5 U/mL). This coupling reaction generates the fluorescent product resorufin, which was quantified at 30 °C using a fluorescence plate reader. […].
(§2) Reactions were initiated by adding the substrate and dye after a 30 min preincubation of the inhibitor with the enzyme. Data were analyzed using a three-parameter equation in GraphPad Prism 7.0 (San Diego, USA). Each reported value represents the mean of at least two independent determinations.

A further data set has as its target T3, hH3R (Homo sapiens, UniProt Q9Y5N1).
T3 construct: expressed in transfected cells; host or cells: HEK-293
The experiment in a line: H3R radioligand displacement assay ([3H]-N-α-methylhistamine). The note with it: 95% confidence interval in brackets; HEK-293 membranes. It counts as binding. The procedure: HEK-293 cells (human embryonic kidney cells) stably expressing hH3R were washed and harvested in PBS buffer (phosphate-buffered saline). […] The cell membrane homogenate was centrifuged (20,000× g, 20 min, 4 °C), and the resulting pellet was resuspended in binding buffer and stored at −80 °C until use.
Prior to experiments, the cell membranes were thawed, homogenized by sonication at 4 °C, and kept in ice-cold binding buffer. Crude membrane extracts (20 μg/well in a final volume of 0.2 mL binding buffer) were incubated with [^3H]-N-α-methylhistamine (2 nM; 78.3 Ci/mmol) and varying concentrations of test compounds. Assays were performed in duplicate, with compound concentrations ranging from 0.01 nM to 100 μM. Incubations proceeded for 90 min at room temperature under continuous agitation.
Bound radioligand was separated from free radioligand by filtration through GF/B filters pretreated with 0.3% (w/v) polyethyleneimine, using a cell harvester. Radioactivity was quantified by liquid scintillation counting. Data were analyzed using GraphPad Prism v8 (San Diego, CA, USA) software, employing non-linear regression analysis.

The target in the next data set is T4, hMAO-B (Homo sapiens, UniProt P27338).
T4 construct: purchased Sigma-Aldrich, Gillingham, UK
T4 sequence (P27338 1-520): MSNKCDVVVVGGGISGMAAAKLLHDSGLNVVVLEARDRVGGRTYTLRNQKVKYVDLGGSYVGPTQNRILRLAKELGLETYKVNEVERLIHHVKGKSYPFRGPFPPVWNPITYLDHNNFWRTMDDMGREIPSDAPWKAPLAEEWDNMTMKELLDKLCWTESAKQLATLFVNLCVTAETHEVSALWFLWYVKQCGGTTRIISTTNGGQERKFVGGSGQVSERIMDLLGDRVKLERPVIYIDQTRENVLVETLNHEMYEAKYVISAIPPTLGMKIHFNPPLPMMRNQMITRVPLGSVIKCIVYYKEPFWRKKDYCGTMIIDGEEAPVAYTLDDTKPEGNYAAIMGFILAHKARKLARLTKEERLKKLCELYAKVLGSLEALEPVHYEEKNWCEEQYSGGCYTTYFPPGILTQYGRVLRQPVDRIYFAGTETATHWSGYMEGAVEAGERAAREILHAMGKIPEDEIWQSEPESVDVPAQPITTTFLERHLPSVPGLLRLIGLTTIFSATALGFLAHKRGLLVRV
Description: biochemical. Conditions: test concentration of 1 µM; read-out: Percentage of MAO-B inhibition ± SEM. Type of data set: biochemical. The procedure:
The activity of human recombinant membrane-bound monoamine oxidase isoforms A and B (MAO-A/B) (Sigma-Aldrich, Gillingham, UK) in 50 mM potassium phosphate buffer (pH 7.5) was determined by measuring hydrogen peroxide production coupled to the fluorescent dye Amplex Red (Sigma-Aldrich, UK) at a final concentration of 50 μM, in the presence of horseradish peroxidase (HRP, 2.5 U/mL). This coupling reaction generates the fluorescent product resorufin, which was quantified at 30 °C using a fluorescence plate reader.
as §2

Data set [3] addresses T1, equine serum BChE [EqBChE]. Details: method as in PMID 30727776. Conditions: Figure 1; ref [22]; read-out: EqBChE (IC50 of prototype); cited from earlier work.
The test system of data set [4] is SH-SY5Y neuroblastoma cells. The note with it: 50 μM, ref [28],[29]; cited from earlier work.

Like-named read-outs stand apart in the source and are kept apart here.

Chain of electric eel AChE [EeAChE] (O42275 24-633): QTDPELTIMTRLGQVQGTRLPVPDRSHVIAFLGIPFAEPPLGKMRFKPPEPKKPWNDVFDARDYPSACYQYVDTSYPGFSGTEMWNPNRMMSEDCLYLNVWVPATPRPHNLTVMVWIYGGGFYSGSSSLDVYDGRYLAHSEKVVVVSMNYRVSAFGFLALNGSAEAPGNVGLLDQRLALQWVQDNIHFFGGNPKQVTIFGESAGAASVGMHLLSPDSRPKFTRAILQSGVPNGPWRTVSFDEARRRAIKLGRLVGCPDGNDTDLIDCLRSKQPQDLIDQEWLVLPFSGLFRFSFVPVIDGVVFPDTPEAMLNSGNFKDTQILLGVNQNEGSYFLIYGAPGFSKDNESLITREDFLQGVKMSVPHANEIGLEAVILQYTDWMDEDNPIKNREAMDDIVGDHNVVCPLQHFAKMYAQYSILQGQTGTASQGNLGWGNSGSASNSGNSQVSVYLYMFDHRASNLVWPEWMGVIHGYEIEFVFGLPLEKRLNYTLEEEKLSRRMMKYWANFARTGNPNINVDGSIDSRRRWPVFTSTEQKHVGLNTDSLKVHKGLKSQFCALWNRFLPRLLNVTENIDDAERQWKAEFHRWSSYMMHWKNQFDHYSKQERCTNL
T1 sequence (P81908 whole entry): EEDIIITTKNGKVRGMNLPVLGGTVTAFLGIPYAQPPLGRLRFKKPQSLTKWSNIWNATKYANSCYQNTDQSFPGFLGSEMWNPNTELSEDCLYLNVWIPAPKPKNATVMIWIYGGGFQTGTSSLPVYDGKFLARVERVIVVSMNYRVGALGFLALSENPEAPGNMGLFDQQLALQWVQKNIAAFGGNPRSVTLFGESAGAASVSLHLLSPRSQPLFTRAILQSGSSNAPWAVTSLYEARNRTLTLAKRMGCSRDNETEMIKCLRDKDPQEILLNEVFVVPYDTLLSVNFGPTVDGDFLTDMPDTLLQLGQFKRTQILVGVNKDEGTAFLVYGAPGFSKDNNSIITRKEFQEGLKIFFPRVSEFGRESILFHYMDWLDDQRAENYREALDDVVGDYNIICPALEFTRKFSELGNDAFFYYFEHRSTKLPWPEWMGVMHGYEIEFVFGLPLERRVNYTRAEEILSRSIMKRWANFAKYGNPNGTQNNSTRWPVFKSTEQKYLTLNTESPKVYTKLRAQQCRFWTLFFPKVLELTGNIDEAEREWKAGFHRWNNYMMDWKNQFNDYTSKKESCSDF
T3 sequence (Q9Y5N1 whole entry): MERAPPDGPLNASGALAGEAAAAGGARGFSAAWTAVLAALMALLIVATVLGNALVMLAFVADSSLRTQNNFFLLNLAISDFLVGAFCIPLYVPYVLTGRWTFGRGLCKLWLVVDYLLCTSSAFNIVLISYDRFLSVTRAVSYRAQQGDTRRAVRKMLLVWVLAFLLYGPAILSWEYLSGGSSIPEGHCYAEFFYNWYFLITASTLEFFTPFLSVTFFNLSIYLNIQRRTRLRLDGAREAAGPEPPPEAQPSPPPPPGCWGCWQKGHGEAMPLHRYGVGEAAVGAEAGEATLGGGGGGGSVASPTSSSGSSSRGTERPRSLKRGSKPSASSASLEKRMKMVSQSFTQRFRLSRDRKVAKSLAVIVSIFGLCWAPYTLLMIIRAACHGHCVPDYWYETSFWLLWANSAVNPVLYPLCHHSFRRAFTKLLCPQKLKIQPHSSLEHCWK

Usually IC50 stands for the midpoint of a concentration-inhibition curve. What is called inhibition is the share of the control response that was lost under treatment. Broadly, the Ki is the dissociation constant of the complex between target and ligand, obtained from inhibition or displacement. Regarding `O=c1oc2cc(OCCCN3CCCCC3)ccc2cc1-c1cn(-c2ccccc2)nn1` [Compound 1b, 3-(1-Phenyl-1H-1,2,3-triazol-4-yl)-7-(3-(piperidin-1-yl)propoxy)-2H-chromen-2-one], the IC50 was 3970 ± 94 nM in data set [1] and 1330 ± 45 nM in data set [2] (Electric eel AChE, Ellman method, read-out: IC50(nM) ± SD AChE (EeAChE)). Moreover, in data set [2] (Selectivity Index = EqBChE IC50/EeAChE IC50), the SI came to 3. In addition, the inhibition at 1 µM is 6.4 ± 0.5% on hMAO-A and 11.4 ± 1.9% at hMAO-B. The same compound gave a Ki on hH3R of 32 nM.

Take `CN(C)c1ccc(-c2cc3ccc(OCCN4CCCCC4)cc3oc2=O)cc1` [Compound 2]: the IC50 in data set [3] was 6370 nM.

What is called cell viability is a per cent measure of how many cells are alive, often set against a control. As for `Nc1c2c(nc3ccccc13)CCCC2` [tacrine], the cell viability in data set [4] is recorded as 97%.

Values taken from paper PMC12472947 (Pharmaceuticals, 2025).
